Tests used:
[1] = Metabolites in rat liver microsomes (systems I-rat, II-rat); type: in vitro ADME, Sprague-Dawley rat
Experimental: Then, NADPH-B (10 μl) was added and incubated for 2 h. […] Then, UDPGA (50 μl) was added and incubated for 2 h. […] Then, UDPGA (50 μl) was added and incubated for 2 h. In addition, the naringenin solution (1 mM, 10 μl) was evaluated in rat systems I, II, and III as above.
(§1) The incubated solution (500 μl) of systems I-rat, II-rat, III-rat, I-human, and II-human were extracted with ethyl acetate (500 μl) for at least 3 min by vortexing and centrifuged for 10 min at 13,000 rpm and 4°C. The extraction process described above was performed twice and all supernatants were transferred into centrifuge tubes, dried with N2, and dissolved with methanol-water (1:1, v/v). All samples were injected into a UPLC/Q-TOF-MS system consisting of a Waters Acquity ultra performance liquid chromatography (UPLC) coupled with a Micromass micro™ quadrupole time-of-flight mass spectrometry (Q-TOF-MS) system (Waters Corp., Milford, MA, USA), equipped with an electrospray ionization source, and controlled by the MassLynx (v. 4.1) software. Separation was performed on a Waters Acquity UPLC BEH C18 column (50 mm × 2.1 mm, 1.7 μm) at 40°C. The mobile phase consisted of 0.1% formic acid (v/v) in water (A) and methanol (B) using a linear gradient of 95% to 60% A (0–25 min), 60% to 40% A (25–35 min), 40% to 10% A (35–40 min), 10% A (40–43 min), 10% to 95% A (43–44 min), and 95% A (44–45 min). The injection volume was 5 μl with flow rate of 0.2 ml min^-1. The Q-TOF-MS worked in a full scan mode (100–1,200 m/z), selection ion mode, and product ion mode, in negative ion mode, respectively. The conditions were as follows: capillary voltage 3,000 V, sample cone voltage 30 V, extraction cone voltage 2.0 V, source temperature 100°C, desolvation temperature 350°C, cone gas (N2) flow rate of 40 L/h, desolvation gas (N2) flow rate of 700 L/h, low collision energy 6.0 eV, and high collision energy 20–80 eV. Compounds were detected with accurate mass using leucine enkephalin for mass correction at 554.2615 (m/z) in negative ionization mode.

[2] = Metabolites in human liver microsomes (systems I-human, II-human); type: in vitro ADME
Experimental: Then, NADPH-B (10 μl) was added and the mixed solution incubated for 2 h. […] Next, UDPGA (50 μl) was added and the mixed solution incubated for 2 h. In addition, the naringenin solution (1 mM, 10 μl) was evaluated in human systems I and II as above.
as §1

SMILES | found in rat liver microsomes, incubation of naringenin (S) [1] | found in human liver microsomes, incubation of naringenin (S) [2]
O=C1C[C@@H](c2ccc(O)c(O)c2)Oc2cc(O)cc(O)c21 [M7, Eriodictyol] | + | +
O=c1cc(-c2ccc(O)cc2)oc2cc(O)cc(O)c12 [M6, Apigenin] | + | +
COc1ccc([C@@H]2CC(=O)c3c(O)cc(O)cc3O2)cc1O [M8, Hesperetin] | + | –
